In patent US12698474B2, “B-cell cultivation method” (priority 2017, dated 2026):

System: (single deposited) (rabbit) B-cells
Assay: Co-cultivation of single deposited B-cells with EL-4 B5 feeder cells, quantification of IgG in supernatant by ELISA
Type: cell-based
Experimental: Generally, the 96-well multi well plate in which the co-cultivation was performed was centrifuged after seven days of co-cultivation at 300×g for 5 min. 150 μl supernatant was removed and diluted at a ratio of 2:1 with PBS in a second 96-well multi well plate. The antibody was used at a concentration of 50 ng/ml. If the OD was or exceeded 1 after an incubation time of 5 min. a dilution series of from 0.8 to 108 ng/ml IgG was tested.
Specifically, a mixture of 0.5 μg/ml of biotinylated mouse anti-rabbit IgG antibody (Sigma-Aldrich) and 0.35 μg/ml anti-rabbit IgG HRP conjugate (Sigma-Aldrich) was transferred to 384 well streptavidin coated microtiter plates (MicroCoat Biotechnologie GmbH). Dilutions of B-cell supernatants in PBS supplemented with 0.5% BSA and 0.05% Tween®-20 were added and incubated for 90 min at RT. After repeated washing (6×) with PBST (phosphate buffered saline with 0.2% Tween®-20) buffer the plates were developed with BM Blue® HRP substrate solution and color formation was measured by absorbance at 370 nm. A commercial rabbit IgG (Sigma-Aldrich) was used as a calibration standard.
Single cell sorted B-cells were cultured in 96-well plates with 200 μl/well EL-4 B5 medium with Pansorbin Cells (SAC) (Calbiochem (Merck), Darmstadt, Deutschland), EL-4 B5 cells (5×10^4/well) and rabbit thymocyte supernatant (TSN) or cytokine mix (CM) with PMA, respectively, for 7 days at 37° C. in an atmosphere of 5% CO2 in the incubator. B-cell culture supernatants were removed for screening and the cells harvested immediately for variable region gene cloning or frozen at −80° C. in 100 μl RLT buffer (Qiagen, Hilden, Germany).

[1] = PMA alone, in the absence of cytokines and interleukins

SMILES: CCCCCCCCCCCCCC(=O)O[C@@H]1[C@@H](C)[C@@]2(O)[C@@H](C=C(CO)C[C@]3(O)C(=O)C(C)=C[C@@H]23)[C@@H]2C(C)(C)[C@]12OC(C)=O [PMA, (1aR,1bS,4aR,7aS,7bS,8R,9R,9aS)-9a-(acetyloxy)-4a,7b-dihydroxy-3-(hydroxymethyl)-1,1,6,8-tetramethyl-5-oxo-1a,1b,4,4a,5,7a,7b,8,9,9a-decahydro-H-cyclopropa[3,4]benzo[1,2-e]azulen-9-yl myristate]
- IgG+ wells [% total] (PMA 0.002 ng/ml, 0.1×CM): +
- IgG+ wells [% total] (PMA 0.011 ng/ml, 0.1×CM): +
- productivity IgG+ [μg/ml] (PMA 0.011 ng/ml, 0.1×CM): +
- IgG+ wells [% total] (PMA 0.054 ng/ml, 0.1×CM): ++++
- productivity IgG+ [μg/ml] (PMA 0.054 ng/ml, 0.1×CM): +++
- Average IgG productivity (PMA 0.095 ng/ml, CM 1x): 1.390 µg/mL
- Number of IgG positive wells [% of total] (PMA 0.095 ng/ml, CM 1x): 38.1 % of total
- productivity IgG+ [μg/ml] (PMA 0.127 ng/ml, 0.032×CM): +
- IgG+ wells [% total] (PMA 0.127 ng/ml, 0.1×CM): ++
- productivity IgG+ [μg/ml] (PMA 0.127 ng/ml, 0.1×CM): ++++
- IgG+ wells [% total] (PMA 0.225 ng/ml, 0.1×CM): +++++
- productivity IgG+ [μg/ml] (PMA 0.225 ng/ml, 0.1×CM): +++++
- IgG+ wells [% total] (PMA 0.3 ng/ml, 0.032×CM): ++++
- productivity IgG+ [μg/ml] (PMA 0.3 ng/ml, 0.032×CM): +++
- IgG+ wells [% total] (PMA 0.3 ng/ml, 0.1×CM): +++++
- productivity IgG+ [μg/ml] (PMA 0.3 ng/ml, 0.1×CM): +++++
- Average IgG productivity (PMA 0.3 ng/ml, CM 0.01x): 1.931 µg/mL
- Number of IgG positive wells [% of total] (PMA 0.3 ng/ml, CM 0.01x): 69.0 % of total
- Average IgG productivity (PMA 0.3 ng/ml, CM 0.032x): 3.476 µg/mL
- Number of IgG positive wells [% of total] (PMA 0.3 ng/ml, CM 0.032x): 70.2 % of total
- Average IgG productivity (PMA 0.3 ng/ml, CM 0.1x): 4.450 µg/mL
- Number of IgG positive wells [% of total] (PMA 0.3 ng/ml, CM 0.1x): 67.9 % of total
- Average IgG productivity (PMA 0.3 ng/ml, CM 0.32x): 2.662 µg/mL
- Number of IgG positive wells [% of total] (PMA 0.3 ng/ml, CM 0.32x): 57.1 % of total
- Average IgG productivity (PMA 0.3 ng/ml, CM 1x): 0.720 µg/mL
- Number of IgG positive wells [% of total] (PMA 0.3 ng/ml, CM 1x): 17.9 % of total
- IgG+ wells [% total] (PMA 0.534 ng/ml, 0.032×CM): ++
- productivity IgG+ [μg/ml] (PMA 0.534 ng/ml, 0.032×CM): +++
- IgG+ wells [% total] (PMA 0.534 ng/ml, 0.1×CM): +++++
- productivity IgG+ [μg/ml] (PMA 0.534 ng/ml, 0.1×CM): +++
- IgG+ wells [% total] (PMA 0.712 ng/ml, 0.032×CM): ++
- productivity IgG+ [μg/ml] (PMA 0.712 ng/ml, 0.032×CM): +++
- IgG+ wells [% total] (PMA 0.712 ng/ml, 0.1×CM): +++
- productivity IgG+ [μg/ml] (PMA 0.712 ng/ml, 0.1×CM): ++
- IgG+ wells [% total] (PMA 0.949 ng/ml, 0.032×CM): ++++
- productivity IgG+ [μg/ml] (PMA 0.949 ng/ml, 0.032×CM): +++++
- Average IgG productivity (PMA 0.95 ng/ml, CM 0x): 1.650 µg/mL
- Number of IgG positive wells [% of total] (PMA 0.95 ng/ml, CM 0x): 28.6 % of total
- Average IgG productivity (PMA 0.95 ng/ml, CM 0.01x): 4.235 µg/mL
- Number of IgG positive wells [% of total] (PMA 0.95 ng/ml, CM 0.01x): 69.0 % of total
- Average IgG productivity (PMA 0.95 ng/ml, CM 0.032x): 5.340 µg/mL
- Number of IgG positive wells [% of total] (PMA 0.95 ng/ml, CM 0.032x): 67.9 % of total
- Average IgG productivity (PMA 0.95 ng/ml, CM 0.1x): 1.623 µg/mL
- Number of IgG positive wells [% of total] (PMA 0.95 ng/ml, CM 0.1x): 50.0 % of total
- Average IgG productivity (PMA 0.95 ng/ml, CM 0.32x): 0.134 µg/mL
- Number of IgG positive wells [% of total] (PMA 0.95 ng/ml, CM 0.32x): 23.8 % of total
- Average IgG productivity (PMA 0.95 ng/ml, CM 1x): 0.100 µg/mL
- Number of IgG positive wells [% of total] (PMA 0.95 ng/ml, CM 1x): 8.3 % of total
- IgG+ wells [% total] (PMA 0.95 ng/ml, without CM): +
- productivity IgG+ [μg/ml] (PMA 0.95 ng/ml, without CM): +
- IgG+ wells [% total] (PMA 1.266 ng/ml, 0.032×CM): +++
- productivity IgG+ [μg/ml] (PMA 1.266 ng/ml, 0.032×CM): +++++
- IgG+ wells [% total] (PMA 1.688 ng/ml, 0.032×CM): +++++
- productivity IgG+ [μg/ml] (PMA 1.688 ng/ml, 0.032×CM): +++++
- IgG+ wells [% total] (PMA 1.688 ng/ml, without CM): ++
- productivity IgG+ [μg/ml] (PMA 1.688 ng/ml, without CM): +++
- IgG+ wells [% total] (PMA 2.25 ng/ml, 0.032×CM): ++++
- productivity IgG+ [μg/ml] (PMA 2.25 ng/ml, 0.032×CM): ++++
- IgG+ wells [% total] (PMA 2.251 ng/ml, without CM): +++++
- productivity IgG+ [μg/ml] (PMA 2.251 ng/ml, without CM): +++++
- Average IgG productivity (PMA 3 ng/ml, CM 0.01x): 3.893 µg/mL
- Number of IgG positive wells [% of total] (PMA 3 ng/ml, CM 0.01x): 69.0 % of total
- Average IgG productivity (PMA 3 ng/ml, CM 0.032x): 3.480 µg/mL
- Number of IgG positive wells [% of total] (PMA 3 ng/ml, CM 0.032x): 72.6 % of total
- Average IgG productivity (PMA 3 ng/ml, CM 0.1x): 0.363 µg/mL
- Number of IgG positive wells [% of total] (PMA 3 ng/ml, CM 0.1x): 35.7 % of total
- Average IgG productivity (PMA 3 ng/ml, CM 0.32x): 0.125 µg/mL
- Number of IgG positive wells [% of total] (PMA 3 ng/ml, CM 0.32x): 13.1 % of total
- Average IgG productivity (PMA 3 ng/ml, CM 1x): 0.351 µg/mL
- Number of IgG positive wells [% of total] (PMA 3 ng/ml, CM 1x): 13.1 % of total
- IgG+ wells [% total] (PMA 3.999 ng/ml, without CM): +++
- productivity IgG+ [μg/ml] (PMA 3.999 ng/ml, without CM): +++
- IgG+ wells [% total] (PMA 5.331 ng/ml, without CM): ++++
- productivity IgG+ [μg/ml] (PMA 5.331 ng/ml, without CM): +++++
- IgG+ wells [% total] (PMA 7.106 ng/ml, without CM): +++++
- productivity IgG+ [μg/ml] (PMA 7.106 ng/ml, without CM): ++
- numbers of IgG positive wells [1]: comparable
- productivity [1]: increased
